Data reported in article PMC6956567 (Bioorganic & medicinal chemistry letters, 2014).

Experiments:
[1] = target: human TRPV1 (Homo sapiens, UniProt Q8NER1); test: FLIPR antagonism of capsaicin; assay type: cell-based; conditions: for fold better antagonism than linear derivative 15c: Ki(CAP) versus 15c; for antagonism of capsaicin response, in words: capsaicin 100 nM; for fold more potent than the corresponding racemate: Ki(CAP), (S)-isomer versus racemate
[2] = system: CCI-induced cold allodynia; test: Bennett model; assay type: in vivo, rat
[3] = system: capsaicin-induced hypothermia; test: Inhibition of capsaicin-induced hypothermia; assay type: in vivo, mouse; conditions: 15 min before 3 mg/kg ip capsaicin, assayed 30 min after capsaicin

Chain of human TRPV1 (Q8NER1 whole entry): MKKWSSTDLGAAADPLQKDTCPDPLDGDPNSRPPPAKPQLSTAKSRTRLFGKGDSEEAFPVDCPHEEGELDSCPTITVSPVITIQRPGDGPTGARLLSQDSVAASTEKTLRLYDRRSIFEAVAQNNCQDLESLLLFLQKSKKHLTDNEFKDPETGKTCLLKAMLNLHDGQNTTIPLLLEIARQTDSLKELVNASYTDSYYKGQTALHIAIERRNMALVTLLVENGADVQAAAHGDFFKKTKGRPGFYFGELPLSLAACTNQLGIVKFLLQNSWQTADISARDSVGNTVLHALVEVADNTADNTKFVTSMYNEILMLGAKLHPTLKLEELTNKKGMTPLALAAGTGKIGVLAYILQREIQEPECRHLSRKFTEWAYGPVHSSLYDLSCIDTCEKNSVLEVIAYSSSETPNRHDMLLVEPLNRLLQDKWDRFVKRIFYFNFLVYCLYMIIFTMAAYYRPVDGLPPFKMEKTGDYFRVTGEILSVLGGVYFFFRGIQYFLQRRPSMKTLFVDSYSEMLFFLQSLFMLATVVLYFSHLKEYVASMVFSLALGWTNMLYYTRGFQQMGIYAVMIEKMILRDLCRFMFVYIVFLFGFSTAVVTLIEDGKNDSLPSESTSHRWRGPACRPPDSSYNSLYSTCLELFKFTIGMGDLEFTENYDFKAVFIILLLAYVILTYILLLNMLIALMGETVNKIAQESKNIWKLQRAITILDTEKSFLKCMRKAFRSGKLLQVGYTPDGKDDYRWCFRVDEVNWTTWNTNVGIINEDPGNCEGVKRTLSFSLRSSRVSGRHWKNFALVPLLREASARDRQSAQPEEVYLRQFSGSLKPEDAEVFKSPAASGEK

`CC(C)CCCc1nc(C(F)(F)F)ccc1CNC(=O)C(C)c1ccc(NS(C)(=O)=O)c(F)c1` (stereo not drawn) [15d] was tested, and the “fold better antagonism than linear derivative 15c” value [1] was “ca. 2 fold”.

`CC(C(=O)NCc1ccc(C(F)(F)F)nc1CCC(C)(C)C)c1ccc(NS(C)(=O)=O)c(F)c1` (stereo not drawn) [15e] was tested, and the “fold better antagonism than linear derivative 15c” value [1] was “ca. 2 fold”.

With `CC(C(=O)NCc1ccc(C(F)(F)F)nc1C1CCCCC1)c1ccc(NS(C)(=O)=O)c(F)c1` (stereo not drawn) [15f] the “fold better antagonism than linear derivative 15c” value [1] was 2.5 fold, the “Bennett model, maximal possible effect” value ([2]; 10 mg/kg po) was 60 MPE and the “anti-allodynic activity, max effect” value ([2]; at 10 mg/kg po) was 60%. The “CAP-induced hypothermia, inhibition” value ([3]; 0.1 mg/kg po) was 24 % inh and the “CAP-induced hypothermia, inhibition” value ([3]; 0.3 mg/kg po) was 78 % inh.

With `CCC1CCC(c2nc(C(F)(F)F)ccc2CNC(=O)C(C)c2ccc(NS(C)(=O)=O)c(F)c2)CC1` (stereo not drawn) [15h] the “fold increase in potency compared to 15f” value ([1]; Ki(CAP) versus 15f) was 2 fold.

With `CC(C(=O)NCc1ccc(C(F)(F)F)nc1C1CC2CCC1C2)c1ccc(NS(C)(=O)=O)c(F)c1` (stereo not drawn) [15n] the “fold less potent than monocycle 15f” value ([1]; Ki(CAP) versus 15f) was 2.5 fold.

`CC(C)=Cc1nc(C(F)(F)F)ccc1CNC(=O)C(C)c1ccc(NS(C)(=O)=O)c(F)c1` (stereo not drawn) [16a] was tested, and the “antagonism of capsaicin response, in words” value (“antagonism … in words” below) [1] was “moderate antagonistic activity”.

With `CCC/C=C\c1nc(C(F)(F)F)ccc1CNC(=O)C(C)c1ccc(NS(C)(=O)=O)c(F)c1` (stereo not drawn) [16c] the “fold less potent than saturated derivative 15b” value ([1]; Ki(CAP) versus 15b) was 2 fold.

With `C[C@H](C(=O)NCc1ccc(C(F)(F)F)nc1C1CCCCC1)c1ccc(NS(C)(=O)=O)c(F)c1` [(S)-15f] the “fold more potent than the corresponding racemate” value [1] was 2 fold.

In the case of `CCC1CCC(c2nc(C(F)(F)F)ccc2CNC(=O)[C@@H](C)c2ccc(NS(C)(=O)=O)c(F)c2)CC1` (stereo partly drawn) [(S)-15h], the “fold more potent than the corresponding racemate” value [1] was “ca. 2 fold”.

For `C[C@H](C(=O)NCc1ccc(C(F)(F)F)nc1C1CCC(C)(C)CC1)c1ccc(NS(C)(=O)=O)c(F)c1` [(S)-15l], the “fold more potent than the corresponding racemate” value [1] was “ca. 2 fold”.

For `C[C@H](C(=O)NCc1ccc(C(F)(F)F)nc1C1CC2CCC1C2)c1ccc(NS(C)(=O)=O)c(F)c1` (stereo partly drawn) [(S)-15n], the “fold more potent than the corresponding racemate” value [1] was “ca. 2 fold”.

`CC1CC=C(c2nc(C(F)(F)F)ccc2CNC(=O)[C@@H](C)c2ccc(NS(C)(=O)=O)c(F)c2)CC1` (stereo partly drawn) [(S)-15p] was tested, and the “fold more potent than the corresponding racemate” value [1] was “ca. 2 fold”.

`C[C@H](C(=O)NCc1ccc(C(F)(F)F)nc1C1=CCC(C(C)(C)C)CC1)c1ccc(NS(C)(=O)=O)c(F)c1` (stereo partly drawn) [(S)-15t] was tested, and the “fold more potent than the corresponding racemate” value [1] was “ca. 2 fold”.

In the case of `C[C@H](C(=O)NCc1ccc(C(F)(F)F)nc1C1=CCC(C)(C)CC1)c1ccc(NS(C)(=O)=O)c(F)c1` [(S)-15u], the “fold more potent than the corresponding racemate” value [1] was “ca. 2 fold”.

In the case of `CC(C(=O)NCc1ccc(C(F)(F)F)nc1Cl)c1ccc(NS(C)(=O)=O)c(F)c1` (stereo not drawn) [compound 8], the “antagonism … in words” value [1] was “weak antagonists”.

In the case of `CC(C(=O)NCc1ccc(C(F)(F)F)nc1Br)c1ccc(NS(C)(=O)=O)c(F)c1` (stereo not drawn) [compound 9], the “antagonism … in words” value [1] was “weak antagonists”.

With `CC(C)C[C@H](CN)CC(=O)O` [pregabalin, reference compound] the “anti-allodynic activity, max effect” value ([2]; at 100 mg/kg) was 69%.
